#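 These data come from cells grown in 96-well plates and exposed to compound for 48 hours at five concentrations. TGI: concentration producing complete growth inhibition.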
# What was measured:
# Assay in all cases: NCI anticancer screen, dose series, 48 h
# [1] = system: SW-620 colon
# [2] = system: CCRF-CEM leukemia
# [3] = system: NCI-H522 lung
# [4] = system: RPMI-8226 leukemia
# [5] = system: HCC-2998 colon
# [6] = system: SK-MEL-2 melanoma
# [7] = system: LOX IMVI melanoma
# [8] = system: UO-31 renal
# [9] = system: MCF7 breast
# [10] = system: UACC-257 melanoma
# [11] = system: MDA-MB-231 breast
# [12] = system: T-47D breast
# [13] = system: A498 renal
# [14] = system: EKVX NSCLC
# [15] = system: SK-OV-3 ovarian
Structure (SMILES),TGI [1],TGI [2],TGI [3],TGI [4],TGI [5],TGI [6],TGI [7],TGI [8],TGI [9],TGI [10],TGI [11],TGI [12],TGI [13],TGI [14],TGI [15]
CC1(O)/C(=N/O)CC2CC1C2(C)C (stereo unspecified),> 100 µM,> 100 µM,> 100 µM,> 100 µM,> 100 µM,> 100 µM,> 100 µM,> 100 µM,> 100 µM,> 100 µM,> 100 µM,> 100 µM,,,
CC1C[C@]2(C)C(=S)Nc3ccccc3[C@@H]2Nc2ccccc21 (stereo partly specified),55.7 µM,54.4 µM,,> 100 µM,40.6 µM,32 µM,28.5 µM,32.8 µM,27.3 µM,32.5 µM,26.3 µM,41 µM,36.3 µM,57.5 µM,
CCCCCc1c2nc(c(CCCCC)c3ccc([nH]3)c(CCCCC)c3ccc([nH]3)c(CCCCC)c3nc1C=C3)C=C2,> 100 µM,> 100 µM,> 100 µM,> 100 µM,> 100 µM,> 100 µM,> 100 µM,> 100 µM,> 100 µM,> 100 µM,> 100 µM,> 100 µM,,> 100 µM,> 100 µM
COC(=O)[C@H](Cc1ccccc1)NC(=O)N1CCN(C(=O)N[C@@H](Cc2ccccc2)C(=O)OC)CCN(C(=O)N[C@@H](Cc2ccccc2)C(=O)OC)CC1,> 100 µM,> 100 µM,> 100 µM,> 100 µM,> 100 µM,> 100 µM,> 100 µM,> 100 µM,> 100 µM,> 100 µM,,> 100 µM,> 100 µM,> 100 µM,> 100 µM
CSc1cc(Cl)c(C)cc1S(=O)(=O)NC(=O)NNc1ccc(F)c(Cl)c1,> 100 µM,> 100 µM,> 100 µM,,> 100 µM,> 100 µM,> 100 µM,,> 100 µM,,> 100 µM,> 100 µM,> 100 µM,> 100 µM,> 100 µM
CCOC(=O)c1nc2ccc(C(F)(F)F)cc2nc1Oc1ccc(F)cc1,> 100 µM,> 100 µM,,> 100 µM,> 100 µM,> 100 µM,> 100 µM,> 100 µM,> 100 µM,> 100 µM,> 100 µM,> 100 µM,> 100 µM,> 100 µM,> 100 µM
COc1ccc(OC)c2nc3c(C(=O)NCCN(C)C)cccc3nc12,21.7 µM,11 µM,13.4 µM,> 24.2 µM,13.4 µM,25.9 µM,4.91 µM,> 84.7 µM,> 29.8 µM,15.3 µM,19.3 µM,> 100 µM,29.4 µM,22.9 µM,
CC1N(C)C(=O)OC12CCN(CCCC(=O)c1ccc(F)cc1)CC2 (stereo unspecified),> 100 µM,> 100 µM,> 100 µM,> 100 µM,,> 100 µM,> 100 µM,> 100 µM,> 100 µM,> 100 µM,> 100 µM,> 100 µM,> 100 µM,,> 100 µM
